# According to the NIST ThermoML archive (doi:10.1016/j.jct.2014.03.023):
# Numbers after ± are expanded uncertainties.
# Experiments:
# [1] = Pendant drop shape
# [2] = molar heat capacity at constant pressure; details: 101 kPa, Liquid, Small sample (50 mg) DSC
# [3] = wn = mass fraction of the nth substance listed; details: Pendant drop shape, w1 = 1
smiles,measurement,setting,value
CC[n+]1ccc(C)cc1.O=S(=O)([N-]S(=O)(=O)C(F)(F)F)C(F)(F)F,surface tension liquid-gas,[1]; 298.2 K,24.3 ± 0.4 mN/m
same,surface tension liquid-gas,[1]; 303.2 K,23.9 ± 0.4 mN/m
same,surface tension liquid-gas,[1]; 313.2 K,23.1 ± 0.4 mN/m
same,surface tension liquid-gas,[1]; 323.2 K,22.2 ± 0.4 mN/m
same,molar heat capacity at constant pressure,[2]; 296.2 K,627 ± 27 J/K/mol
same,molar heat capacity at constant pressure,[2]; 300.2 K,634 ± 27 J/K/mol
same,molar heat capacity at constant pressure,[2]; 304.2 K,637 ± 27 J/K/mol
same,molar heat capacity at constant pressure,[2]; 308.2 K,640 ± 27 J/K/mol
same,molar heat capacity at constant pressure,[2]; 312.2 K,644 ± 27 J/K/mol
same,molar heat capacity at constant pressure,[2]; 316.2 K,647 ± 27 J/K/mol
same,molar heat capacity at constant pressure,[2]; 320.2 K,649 ± 28 J/K/mol
same,molar heat capacity at constant pressure,[2]; 324.2 K,652 ± 28 J/K/mol
same,molar heat capacity at constant pressure,[2]; 328.2 K,655 ± 28 J/K/mol
same,molar heat capacity at constant pressure,[2]; 332.2 K,659 ± 28 J/K/mol
same,molar heat capacity at constant pressure,[2]; 336.2 K,665 ± 28 J/K/mol
same,molar heat capacity at constant pressure,[2]; 340.2 K,669 ± 28 J/K/mol
same,molar heat capacity at constant pressure,[2]; 344.2 K,674 ± 29 J/K/mol
same,molar heat capacity at constant pressure,[2]; 348.2 K,679 ± 29 J/K/mol
same,molar heat capacity at constant pressure,[2]; 352.2 K,685 ± 29 J/K/mol
same,molar heat capacity at constant pressure,[2]; 356.2 K,691 ± 29 J/K/mol
same,molar heat capacity at constant pressure,[2]; 360.2 K,697 ± 30 J/K/mol
same,molar heat capacity at constant pressure,[2]; 364.2 K,703 ± 30 J/K/mol
same,molar heat capacity at constant pressure,[2]; 368.2 K,708 ± 30 J/K/mol
same,molar heat capacity at constant pressure,[2]; 372.2 K,715 ± 30 J/K/mol
CCn1cc[n+](C)c1.N#CN=C=[N-] [1-ethyl-3-methylimidazolium dicyanamide],surface tension liquid-gas,[1]; 298.2 K,56.4 ± 0.9 mN/m
same,surface tension liquid-gas,[1]; 303.2 K,56 ± 0.9 mN/m
same,surface tension liquid-gas,[1]; 313.2 K,54.8 ± 0.9 mN/m
same,surface tension liquid-gas,[1]; 323.2 K,53.5 ± 0.8 mN/m
CCn1cc[n+](C)c1.N#CN=C=[N-] [1-ethyl-3-methylimidazolium dicyanamide] + CC[n+]1ccc(C)cc1.O=S(=O)([N-]S(=O)(=O)C(F)(F)F)C(F)(F)F,surface tension liquid-gas,[3]; 298.2 K,56.4 ± 0.9 mN/m
same,surface tension liquid-gas,[3]; 303.2 K,56 ± 0.9 mN/m
same,surface tension liquid-gas,[3]; 313.2 K,54.8 ± 0.9 mN/m
same,surface tension liquid-gas,[3]; 323.2 K,53.5 ± 0.8 mN/m
